pIC50: −log10 of the molar value. Where a name gives a salt, the structure may show the parent alone.
target: T1, BK2 receptor sites in guinea pig ileum (Cavia porcellus, UniProt O70526); assay: Bradykinin Receptor Binding Assay (competition with 3H-bradykinin for BK2 receptor sites in guinea pig ileum); conditions: 80 pM 3H-BK, guinea pig ileum homogenate, 90 min, 25° C., pH 6.8; read-out: Bradykinin Binding in G.P. ileum, IC50
T1 construct: The tissue is cut into small pieces and homogenized in 20 volumes of homogenization buffer; from tissue; host or cells: guinea pig distal ileum, membrane homogenate (Hartley strain, male, adult; animals from Charles River)
T1 sequence (O70526 1-372): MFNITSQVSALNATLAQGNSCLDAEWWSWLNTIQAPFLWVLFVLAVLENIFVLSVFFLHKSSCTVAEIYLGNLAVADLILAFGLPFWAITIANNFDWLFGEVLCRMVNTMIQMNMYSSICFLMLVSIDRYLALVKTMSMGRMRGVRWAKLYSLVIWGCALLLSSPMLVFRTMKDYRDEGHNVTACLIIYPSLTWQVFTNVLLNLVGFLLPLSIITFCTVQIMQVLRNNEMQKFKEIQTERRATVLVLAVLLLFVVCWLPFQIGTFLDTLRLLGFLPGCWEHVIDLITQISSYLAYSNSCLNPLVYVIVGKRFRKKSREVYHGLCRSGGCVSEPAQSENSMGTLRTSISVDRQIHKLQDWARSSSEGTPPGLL
Method: 1. Bradykinin Receptor Binding Assay
The following procedure is used to identify compounds which compete specifically with triturated bradykinin (^3 H-BK) for BK2 receptor sites in guinea pig ileum.
The distal portion of adult, male guinea pig (Hartley strain, 350-500 g, Charles River) ileum is removed and placed in ice cold homogenization buffer [[…] N-tris (hydroxymethyl)methyl-2-aminoethane sulfonic acid (TES), 1 mM 1, 10-phenanthroline, adjusted to pH 6.8 with ammonium hydroxide].
The contents of the ileal lumen are rinsed out with cold homogenization buffer. The tissue is cut into small pieces and homogenized in 20 volumes of homogenization buffer 3 times of 10 seconds duration using a Brinkman Polytron homogenizer equipped with a PTA 10 TS generator at setting 5.
The homogenate is fillered through a surgical gauze sponge and centrifuged at 50,000 × g for 20 minutes at 4° C. The supernatant fluid is discarded and the homogenization and centrifugation procedures are repeated. After discarding the supernatant fluid, the final pellet is resuspended in 40 volumes of assay buffer (25 mM TES, pH 6.8, 1 mM 1,10-phenanthroline, 1 mM dithiothreitol, 2 μM captopril, 140 μg/ml bacitracin and 0.1% bovine serum albumin (BSA)). The homogenate is filtered once more through a surgical gauze sponge and kept on ice until used. The assay is performed using only polypropylene pipet tips and polypropylene test tubes. Each tube receives 100 μl of 800 pM ^3 H-BK, 100 μl of the test compound solution […] or vehicle (assay buffer), and 100 μl of 25 mg/ml tissue homogenate in a total volume of 1 ml. The final concentration of 3H-BK is 80 pM. The final tissue concentration is 2.5 mg/ml. Compounds are screened at 100 μM. Compounds which are not soluble in water are first solubilized in DMSO and then diluted 1:100 in the assay buffer. Addition of 100 μl of this sample to the assay will yield a final DMSO concentration of 0.1% which has been shown not to affect the binding assay. Nonspecific binding is determined in the presence of 1 μM unlabeled bradykinin. All determinmions are made in triplicate. Three 100 μl aliquots of the 800 pM 3H-BK working solution are added directly to scintillation vials to determine the total added radioactivity.
The tubes are incubated for 90 minutes at 25° C. while being gently agitated on an orbital shaker. Bound ligand is separated from free ligand, using Whatman GF/B glass fiber filters (pretreated with 0.1% aqueous polyethyleneimine made neutral with HCl). A Brandel receptor binding harvester is used. Assay tubes and glass fiber filters are rinsed three times with 3 ml of cold physiological saline.
The filter discs are transferred to 20 ml scintillation vials. Ten ml of aqueous sample LSC cocktail (Aquassure, New England Nuclear) is added to each vial. After capping, the vials are agitated for 5 minutes on an orbital shaker. The samples are counted for ten minutes in a refrigerated liquid scintillation counter to obtain the following values: Bt (total binding), Bns (non-specific binding) and Bx (total binding in the presence of the test compound). From these values, control specific binding (C=Bt -Bns), specific binding in the presence of the test compound (D=Bx -Bns), percent of control (D/C ×100) and percent inhibition (1-D/C)×100 are calculated.
If 50% inhibition is obtained at the screening concentration, the compound is considered active and a dilution series (typically 1:3 serial dilutions of the test compound) is tested in the binding assay. After calculation of the percent of control of each dilution, the values are analyzed and the IC50 with its 95% confidence limits is determined.

First: O=C(NC1CCN(Cc2ccccc2)CC1)c1ccc(Nc2c(C(=O)NC3CCN(Cc4ccccc4)CC3)cnc3cc(Cl)ccc23)cc1 [Ex. 17, 7-Chloro-N-[1-(phenylmethyl)-4-piperidinyl]-4-[[4-[[[1-(phenylmethyl)-4-piperidinyl]amino]carbonyl]phenyl]amino]-3-quinolinecarboxamide]
Second: COc1cccc2c(Nc3ccc(C(=O)NC4CCN(Cc5ccccc5)CC4)cc3)c(C(=O)NC3CCN(Cc4ccccc4)CC3)cnc12 [Ex. 3]
The pIC50 of the first is 0.66 log units lower: 6.37 for the first, 7.03 for the second. The second is the more potent here.

First: COc1cccc2c(Nc3ccc(C(=O)NC4CCN(Cc5ccccc5)CC4)cc3)c(C(=O)NC3CCN(Cc4cccc(Cl)c4)CC3)cnc12 [Ex. 2]
Second: COc1cccc(CN2CCC(NC(=O)c3cnc4c(OC)cccc4c3Nc3ccc(C(=O)NC4CCN(Cc5ccccc5)CC4)cc3)CC2)c1 [Ex. 15, N-[1-[(3-Methoxyphenyl)methyl]-4-piperidinyl]-8-methoxy-4-[[4-[[[1-(phenylmethyl)-4-piperidinyl]amino]carbonyl]phenyl]amino]-3-quinoline-carboxamide]
The pIC50 of the first is 0.44 log units higher: 7.10 for the first, 6.66 for the second.

Compared with `CCN(CC)C(=O)c1cccc(CN2CCC(NC(=O)c3cnc4c(OC)cccc4c3Nc3ccc(C(=O)NC4CCN(Cc5ccccc5)CC4)cc3)CC2)c1` [Ex. 11], `COc1cccc2c(Nc3ccc(C(=O)NC4CCN(Cc5ccccc5)CC4)cc3)c(C(=O)NC3CCN(Cc4cccc(C(F)(F)F)c4)CC3)cnc12` [Ex. 16] is 0.80 log units higher in pIC50: 5.80 for the first, 6.60 for the second.

First: CCN(CC)C(=O)CCCCCN1CCC(NC(=O)c2cnc3c(OC)cccc3c2Nc2ccc(C(=O)NC3CCN(Cc4ccccc4)CC3)cc2)CC1 [Ex. 9, N-[1-[6-(Diethylamino)-6-oxohexyl]-4-piperidinyl]-8-methoxy-4-[[4-[[[1-(phenylmethyl)-4-piperidinyl]amino]carbonyl]-phenyl]amino]-3-quinolinecarboxamide]
Second: CCCCN1CCC(NC(=O)c2cnc3c(OC)cccc3c2Nc2ccc(C(=O)NC3CCN(Cc4ccccc4)CC3)cc2)CC1 [Ex. 8, N-(1-Butyl-4-piperidinyl)-8-methoxy-4-[[4-[[[1-(phenylmethyl) -4-piperidinyl]amino]carbonyl]phenyl]amino]-3-quinolinecarboxamide]
The pIC50 of the first is 0.33 log units lower: 5.59 for the first, 5.92 for the second. The second is the more potent here.

Going from `COc1cccc2c(Nc3ccc(C(=O)NC4CCN(Cc5ccccc5)CC4)cc3)c(C(=O)NC3CCN(CCc4ccccc4)CC3)cnc12` [Ex. 12, N-[1-(2-Phenylethyl)-4-piperidinyl]-8-methoxy-4-[[4-[[[1-(phenylmethyl)-4piperidinyl]amino]carbonyl]phenyl]amino]-3-quinolinecarboxamide] to `CCCCN1CCC(NC(=O)c2ccc(Nc3c(C(=O)NC4CCN(Cc5ccccc5)CC4)cnc4c(OC)cccc34)cc2)CC1` [Ex. 13, 4-[[4-[[(1-Butyl-4-piperidinyl)amino]carbonyl]phenyl]amino]-8-methoxy-N-[1-(phenylmethyl)-4-piperidinyl]-3-quinoinecarboxamide], the pIC50 falls from 6.17 to 5.54 (0.63 log units). The first is the more potent here.

`CCN(CC)C(=O)CCCCCN1CCC(N(Cc2ccc(Nc3c(C(=O)NC4CCN(Cc5ccccc5)CC4)cnc4c(OC)cccc34)cc2)C(=O)CCC2CCCC2)CC1` [Ex. 6] and `COc1cccc2c(Nc3ccc(C(=O)NC4CCN(Cc5ccccc5)CC4)cc3)c(C(=O)N(C)C3CCN(C)CC3)cnc12` [Ex. 14] are within 0.2 log units of each other in pIC50: 5.84 for the first, 5.85 for the second.

`COc1cccc2c(Nc3ccc(C(=O)NC4CCN(Cc5ccccc5)CC4)cc3)c(C(=O)NCCN(C)C)cnc12` [Ex. 4, N-[2-(Dimethylamino)ethyl]-8-methoxy-4-[[4-[[[1-(phenylmethyl) -4-piperidinyl]amino]carbonyl]phenyl]amino]-3-quinolinecarboxamide trifluoroacetate (1:4)] and `CCN(CCN(C)C)C(=O)c1cnc2c(OC)cccc2c1Nc1ccc(C(=O)NC2CCN(Cc3ccccc3)CC2)cc1` [Ex. 5, N-[2-(Dimethylamino)ethyl]-N-ethyl-8-methoxy-4-[[4-[[[1-(phenylmethyl)-4-piperidinyl]amino]carbonyl]phenyl]amino]-3-quinolinecarboxamide] are within 0.2 log units of each other in pIC50: 5.57 for the first, 5.54 for the second.

`COc1cccc2c(Nc3ccc(C(=O)NC4CCN(Cc5ccccc5)CC4)cc3)c(C(=O)NC3CCN(Cc4ccc(C(C)(C)C)cc4)CC3)cnc12` [Ex. 1, N-[1-[4-(1,1-Dimethylethyl)phenyl]methyl-4-piperidinyl]-8-methoxy-4-[[4-[[[1-(phenylmethyl) -4-piperidinyl]amino]carbonyl]phenyl]amino]-3-quinolinecarboxamide] gave a pIC50 of 6.37.

same assay, conditions: at 10 μM; 80 pM 3H-BK, guinea pig ileum homogenate; read-out: Bradykinin Binding in G.P. ileum, % inhibition at 10 μM

Going from `CCCCN1CCC(NCc2ccc(Nc3c(C(=O)NC4CCN(Cc5ccccc5)CC4)cnc4c(OC)cccc34)cc2)CC1` [Ex. 7, 4-[[4-[[(1-Butyl-4-piperidinyl)amino]methyl]phenyl]amino]-8-methoxy-N-[1-(phenyimethyl)-4-piperidinyl]-3-qinolinecarboxamide] to `CCCCN1CCC(N(Cc2ccc(Nc3c(C(=O)NC4CCN(Cc5ccccc5)CC4)cnc4c(OC)cccc34)cc2)C(=O)CCC)CC1` [Ex. 10], the inhibition at 10 µM falls from 50.5% to 42.8%.

system: bradykinin-induced writhing in mice; assay: Bradykinin-induced Writhing in Mice; format: in vivo, mice (male CD-1); conditions: 30 mg/kg i.p., mice
Method: 2. Bradykinin-induced Writhing in Mice
Male CD-1 Charles River mice (14-19g), fasted overnight but having free access to water, in groups of 10 (control and treated) are given an intraperitoneal (j.p.) injection of 1 mg/kg of prostaglandin PGE2 in phosphate buffered saline (10 μl/g) and after 20 minutes each mouse receives an i.p. injection of bradykinin (0.5 mg/kg in saline). The treatment group of mice receive a test compound either orally 1 hour prior to administration of bradykinin or i.p. 2 minutes prior to administration of bradykinin. Test compounds are given in saline if soluble or as a suspension in 0.5% Tween 80. The percent inhibition of writhing obtained is calculated as follows: [formula] where C is the mean number of writhes in the control group and D is the mean number of writhes in the drag group. If 30% inhibition or higher is observed with the screening dose, the test compound is considered active. Several logarithmically spaced doses will be tested and the ED50 determined by regression methods with inverse prediction.

Going from `CCN(CC)C(=O)CCCCCN1CCC(NC(=O)c2cnc3c(OC)cccc3c2Nc2ccc(C(=O)NC3CCN(Cc4ccccc4)CC3)cc2)CC1` [Ex. 9, N-[1-[6-(Diethylamino)-6-oxohexyl]-4-piperidinyl]-8-methoxy-4-[[4-[[[1-(phenylmethyl)-4-piperidinyl]amino]carbonyl]-phenyl]amino]-3-quinolinecarboxamide] to `CCCCN1CCC(NC(=O)c2cnc3c(OC)cccc3c2Nc2ccc(C(=O)NC3CCN(Cc4ccccc4)CC3)cc2)CC1` [Ex. 8, N-(1-Butyl-4-piperidinyl)-8-methoxy-4-[[4-[[[1-(phenylmethyl) -4-piperidinyl]amino]carbonyl]phenyl]amino]-3-quinolinecarboxamide], the “Bradykinin-induced writhing, % inhibition at 30 mg/kg i.p.” value falls from 46% to 32%.

With `COc1cccc2c(Nc3ccc(C(=O)NC4CCN(Cc5ccccc5)CC4)cc3)c(C(=O)NC3CCN(Cc4ccccc4)CC3)cnc12` [Ex. 3] the “Bradykinin-induced writhing, % inhibition at 30 mg/kg i.p.” value was 20%.

same assay, conditions: 100 mg/kg p.o., mice

`CC(C(=O)O)c1cccc(C(=O)c2ccccc2)c1` (stereo not drawn) [Ketoprofen] was tested, and the “Bradykinin-induced writhing, % inhibition” value was 52%.

same assay, conditions: 200 mg/kg p.o., mice

For `CC(C)Cc1ccc(C(C)C(=O)O)cc1` (stereo not drawn) [Ibuprofen], the “Bradykinin-induced writhing, % inhibition” value was 43%.

same assay, conditions: 300 mg/kg p.o., mice

`CC(=O)Nc1ccc(O)cc1` [Acetaminophen] was tested, and the “Bradykinin-induced writhing, % inhibition” value was 20%.

same assay, conditions: Mus musculus, po, read-out: Bradykinin-induced writhing, ED50

In the case of `CN1CC[C@]23c4c5ccc(O)c4O[C@H]2[C@@H](O)C=C[C@H]3[C@H]1C5` [Morphine], the ED50 was 4.5 mg/kg.
